The record followed here is US20220009920A1 (GB005, Inc., priority 2020, published 2022).

For orientation: inhibition means the relative decrease from the control value, in per cent.

Holding throughout (test): Large panel kinase profiling
What all share (format): biochemical
Holding throughout (conditions): 1 μM test article, 1 mM ATP

Test [1] concerns the target T1, EPHB3 (Homo sapiens, UniProt P54753).
T1 sequence (P54753 34-998): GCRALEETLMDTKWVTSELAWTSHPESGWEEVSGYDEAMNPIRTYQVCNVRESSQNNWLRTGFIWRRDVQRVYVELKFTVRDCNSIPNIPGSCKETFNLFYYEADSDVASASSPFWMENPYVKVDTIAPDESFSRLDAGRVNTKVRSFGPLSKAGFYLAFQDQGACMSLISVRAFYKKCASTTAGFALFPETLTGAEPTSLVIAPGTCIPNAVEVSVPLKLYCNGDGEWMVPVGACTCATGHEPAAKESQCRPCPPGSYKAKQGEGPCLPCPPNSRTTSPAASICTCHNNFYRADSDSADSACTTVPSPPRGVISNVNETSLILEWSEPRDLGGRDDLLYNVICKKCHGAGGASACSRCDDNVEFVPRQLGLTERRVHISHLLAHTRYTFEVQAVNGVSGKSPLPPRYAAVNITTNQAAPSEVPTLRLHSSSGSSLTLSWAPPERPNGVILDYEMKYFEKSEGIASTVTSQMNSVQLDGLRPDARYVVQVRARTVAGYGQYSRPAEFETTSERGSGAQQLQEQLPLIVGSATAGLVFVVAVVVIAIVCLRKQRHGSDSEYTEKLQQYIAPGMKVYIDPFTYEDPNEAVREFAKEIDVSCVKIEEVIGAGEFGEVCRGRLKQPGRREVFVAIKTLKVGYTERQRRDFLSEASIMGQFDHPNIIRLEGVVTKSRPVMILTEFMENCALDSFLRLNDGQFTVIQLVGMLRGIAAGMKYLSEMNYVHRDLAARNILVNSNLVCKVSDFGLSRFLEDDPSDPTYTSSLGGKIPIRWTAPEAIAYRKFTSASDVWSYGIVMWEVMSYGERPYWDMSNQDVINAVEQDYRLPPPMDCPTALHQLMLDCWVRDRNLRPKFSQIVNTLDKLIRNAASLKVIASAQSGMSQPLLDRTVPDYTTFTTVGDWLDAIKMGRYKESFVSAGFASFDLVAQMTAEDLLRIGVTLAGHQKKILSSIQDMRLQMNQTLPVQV
The gist of the method:
(§1)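 Profiling across the panel relied on the PhosphoSens CSox-Sensor format. A compound concentration of 1 μM and an ATP level of 1 mM were used throughout.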

Test [2] deals with T2, MAPK12/P38G (Homo sapiens, UniProt P53778).
T2 construct: AssayQuant Technologies, Inc. (service provider)
T2 sequence (P53778 1-367): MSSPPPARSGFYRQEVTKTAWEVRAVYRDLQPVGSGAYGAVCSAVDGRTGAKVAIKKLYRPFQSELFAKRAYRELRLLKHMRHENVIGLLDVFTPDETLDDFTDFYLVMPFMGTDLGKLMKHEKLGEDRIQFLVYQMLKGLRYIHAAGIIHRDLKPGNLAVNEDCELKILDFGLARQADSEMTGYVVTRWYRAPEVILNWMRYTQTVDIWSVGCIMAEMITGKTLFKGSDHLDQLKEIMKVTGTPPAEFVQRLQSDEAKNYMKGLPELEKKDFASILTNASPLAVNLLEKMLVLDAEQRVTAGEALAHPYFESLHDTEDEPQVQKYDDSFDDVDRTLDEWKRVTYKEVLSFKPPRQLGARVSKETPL
Put shortly:
as §1

For test [3], the target named is T3, DYRK4 (Homo sapiens, UniProt Q9NR20).
T3 construct: AssayQuant Technologies, Inc. (service laboratory)
T3 sequence (Q9NR20 1-520): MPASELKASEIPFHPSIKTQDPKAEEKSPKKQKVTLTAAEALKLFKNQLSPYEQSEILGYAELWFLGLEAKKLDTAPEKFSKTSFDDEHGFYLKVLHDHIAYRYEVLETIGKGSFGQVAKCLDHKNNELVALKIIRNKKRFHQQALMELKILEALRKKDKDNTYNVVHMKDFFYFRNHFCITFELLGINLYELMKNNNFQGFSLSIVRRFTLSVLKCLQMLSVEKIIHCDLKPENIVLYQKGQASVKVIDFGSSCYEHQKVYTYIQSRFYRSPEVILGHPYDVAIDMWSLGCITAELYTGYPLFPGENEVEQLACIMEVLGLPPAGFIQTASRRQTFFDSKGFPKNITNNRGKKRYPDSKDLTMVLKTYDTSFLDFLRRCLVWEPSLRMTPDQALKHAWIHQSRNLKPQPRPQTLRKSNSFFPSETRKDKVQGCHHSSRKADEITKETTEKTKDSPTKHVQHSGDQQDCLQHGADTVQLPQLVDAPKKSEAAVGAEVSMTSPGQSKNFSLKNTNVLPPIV
The gist of the method: as §1

In the case of `C=CC(=O)N1CCCC(c2c(F)cc(C(N)=O)c3[nH]c4c(c23)CCCCC4)C1` (single isomer, unassigned) [Compound 5-6], the inhibition at 1 µM is 17.6% in test [1], -1.9% in test [2] and 23.2% in test [3].

As for `C=CC(=O)N1CCC[C@@H](c2c(F)cc(C(N)=O)c3[nH]c4c(c23)CC2(CC4)CC2)C1` [Compound 6-2, (S)-5-(1-acryloylpiperidin-3-yl)-6-fluoro-1,2,4,9-tetrahydrospiro[carbazole-3,1′-cyclopropane]-8-carboxamide], the inhibition at 1 µM was -24.4% in test [1], 31.3% in test [2] and 15.4% in test [3].

For the compound `C=CC(=O)N1CCC[C@@H](c2c(F)cc(C(N)=O)c3[nH]c4c(c23)CCC4)C1` [Compound 10-2, (S)-8-(1-acryloylpiperidin-3-yl)-7-fluoro-1,2,3,4-tetrahydrocyclo-penta[b]indole-5-carboxamide], the inhibition at 1 µM in test [1] is -10.1%; in test [2] it was 4.2%; in test [3] it was -6.6%.
